Assay results published in the NIST ThermoML archive (doi:10.1016/j.jct.2017.11.005).

Settings: Gas, Capillary tube (Ostwald / Ubbelohde) method

O=C=O [carbon dioxide]
Settings | viscosity [mPa·s]
308.2 K, 1200 kPa | 0.0153
308.2 K, 2070 kPa | 0.0154
308.2 K, 11330 kPa | 0.0638
308.2 K, 22090 kPa | 0.0882
308.2 K, 34970 kPa | 0.1068
308.2 K, 68930 kPa | 0.1441
308.2 K, 101200 kPa | 0.1733
308.2 K, 150520 kPa | 0.222
323.2 K, 1270 kPa | 0.0161
323.2 K, 2050 kPa | 0.0163
323.2 K, 5040 kPa | 0.0174
323.2 K, 11440 kPa | 0.0398
323.2 K, 20670 kPa | 0.0711
323.2 K, 50820 kPa | 0.112
323.2 K, 105530 kPa | 0.1606
323.2 K, 150430 kPa | 0.1953
